Source: patent US7238668B1, “Inhibition of lymphocyte adherence with CS-1-peptides and fragments thereof” (Fred Hutchinson Cancer Research Center, priority 1989, dated 2007)
Values belong to the substance of their own block, whether it stands above or below them. Ends that are not written are not given here.

What was measured:
[1] = system: T lymphocytes (Jurkat or Molt 4 cells); assay: T lymphocyte adhesion to plasma fibronectin, tryptic fragments and CS peptides; format: cell-based, human
Description: Antibodies that would alter cell adhesion to purified plasma fibronectin, tryptic fragments and CS peptides were identified as previously described (Wayner and Carter, 1987). […] The plates were blocked with PBS supplemented with 10 mg/ml heat denatured BSA (HBSA). T lymphocyte or HT1080 cells were labeled with Na2 ^51CrO4 (50 μlCi/ml for 2–4 hr), washed, and 5×10^4 HT1080 or cultured T cells or […] were incubated with hybridoma culture supernatants (1:2 dilution in PBS supplemented with 1 mg/ml heat denatured BSA) or control myeloma cell culture supernatant for 15 minutes at room temperature. The cells were allowed to adhere to the protein-coated surfaces in the presence of the hybridoma supernatants for 15–30 minutes (HT1080) or 2–4 hours (lymphocytes) at 37° C. Non-adherent cells were removed by washing with PBS, and the adherent cells were dissolved in SDS/NaOH and bound ^51Cr-cpm were quantitated in a gamma counter.
Human plasma fibronectin was a generous gift from Drs. Horowitz and R. Schulman (New York Blood Center, N.Y.). […] Two overlapping peptides spanning the initial 48 residues of the IIICS region of human fibronectin (CS-1 and CS-2) were synthesized and coupled to rabbit IgG as described (Humphries et al., 1986, and Humphries et al., 1987, J. Biol. Chem. 262:6886–6892).

[2] = system: Jurkat cells; assay: Peptide inhibition of Jurkat cell adhesion to plasma fibronectin (50% inhibition point); format: cell-based, human; settings: read-out: Molar Concentration (mM) required for 50% inhibition of Jurkat cell adhesion to plasma fibronectin; fibronectin 5 ug/ml; 30 min
Description: For peptide inhibition studies, ^51Cr-labeled test cells were pre-incubated with CS-1 derived peptides at various concentrations for 15 min at room temperature. The test cells were then allowed to attach to fibronectin-coated surfaces in the presence of exogenous test peptides for 30–60 min. The assay then proceeded as described above.
For these experiments in Table XIII ^51Cr-labeled Jurkat cells (10^5/well) were incubated in the presence of the varying concentrations (starting at 2 mg/ml) of the indicated peptides for 15 min. The Jurkat cells were then allowed to adhere to plasma fibronectin-coated surfaces (5 ug/ml) in the presence of the peptides for 30 min. Adhesion to fibronectin was graphically depicted as cpm bound to the fibronectin surface (Y axis), plotted as a function of molar peptide concentration (X axis).

[3] = system: Ramos (B) lymphocyte adhesion to HUVE monolayers; assay: Endothelial cell adhesion assay, Ramos cells on HUVE monolayers; format: cell-based, human; settings: for Adhesion (cpm) Basal: basal HUVE; for Adhesion (cpm) +IL-1β: IL-1β activated HUVE
Description: (§1) HUVEs were incubated with IL-1 β (1 ng/ml) or in some experiments with TNF α (10 ng/ml) for 6–24 hours. At the end of this incubation the HUVE monolayers were washed and used in the adhesion assay.
(§2) Human umbilical vein endothelial cells (HUVEs) were cultured in 48 well plates as described (supra). To measure adherence of lymphocytes to HUVE monolayer cultures, lymphocytes were labeled with Na2 ^51CrO4 (50 μCi/ml) for 2–4 hours), washed, and then 10^5 lymphocytes were incubated with HUVE monolayers in the presence or absence of inhibitory antibodies or CS-1 derived peptides. The lymphocytes were allowed to adhere for 30 minutes at 37°. Non-adherent cells were subsequently removed by washing with PBS, and the adherent cells were dissolved in SDS/NaOH. Bound ^51Cr-cpm were quantitated in a gamma counter. In some experiments, endothelial cells were activated prior to the adhesion assay by incubating with IL-1 β (1 ng/ml) or […] (10 ng/ml) for 6–24 hours in defined CS-100 media (Cell Systems, Seattle, Wash.).

[4] = system: Jurkat (T) lymphocyte adhesion to HUVE monolayers; assay: Endothelial cell adhesion assay, Jurkat cells on HUVE monolayers; format: cell-based, human; settings: for Adhesion (cpm) Basal: basal HUVE; for Adhesion (cpm) +IL-1β: IL-1β activated HUVE
Description: as §1, §2

[5] = system: LAD (B) lymphocyte adhesion to HUVE monolayers; assay: Endothelial cell adhesion assay, LAD cells on HUVE monolayers; format: cell-based, human; settings: for Adhesion (cpm) Basal: basal HUVE; for Adhesion (cpm) +IL-1β: IL-1β activated HUVE
Description: as §1, §2

[6] = target: integrin receptor α4β1 (human, UniProt P13612 34-1032; P05556 21-798); assay: cell-based or functional assay
Sequence of integrin receptor α4β1 (P13612 34-1032, form in doubt, chain 1 of 2): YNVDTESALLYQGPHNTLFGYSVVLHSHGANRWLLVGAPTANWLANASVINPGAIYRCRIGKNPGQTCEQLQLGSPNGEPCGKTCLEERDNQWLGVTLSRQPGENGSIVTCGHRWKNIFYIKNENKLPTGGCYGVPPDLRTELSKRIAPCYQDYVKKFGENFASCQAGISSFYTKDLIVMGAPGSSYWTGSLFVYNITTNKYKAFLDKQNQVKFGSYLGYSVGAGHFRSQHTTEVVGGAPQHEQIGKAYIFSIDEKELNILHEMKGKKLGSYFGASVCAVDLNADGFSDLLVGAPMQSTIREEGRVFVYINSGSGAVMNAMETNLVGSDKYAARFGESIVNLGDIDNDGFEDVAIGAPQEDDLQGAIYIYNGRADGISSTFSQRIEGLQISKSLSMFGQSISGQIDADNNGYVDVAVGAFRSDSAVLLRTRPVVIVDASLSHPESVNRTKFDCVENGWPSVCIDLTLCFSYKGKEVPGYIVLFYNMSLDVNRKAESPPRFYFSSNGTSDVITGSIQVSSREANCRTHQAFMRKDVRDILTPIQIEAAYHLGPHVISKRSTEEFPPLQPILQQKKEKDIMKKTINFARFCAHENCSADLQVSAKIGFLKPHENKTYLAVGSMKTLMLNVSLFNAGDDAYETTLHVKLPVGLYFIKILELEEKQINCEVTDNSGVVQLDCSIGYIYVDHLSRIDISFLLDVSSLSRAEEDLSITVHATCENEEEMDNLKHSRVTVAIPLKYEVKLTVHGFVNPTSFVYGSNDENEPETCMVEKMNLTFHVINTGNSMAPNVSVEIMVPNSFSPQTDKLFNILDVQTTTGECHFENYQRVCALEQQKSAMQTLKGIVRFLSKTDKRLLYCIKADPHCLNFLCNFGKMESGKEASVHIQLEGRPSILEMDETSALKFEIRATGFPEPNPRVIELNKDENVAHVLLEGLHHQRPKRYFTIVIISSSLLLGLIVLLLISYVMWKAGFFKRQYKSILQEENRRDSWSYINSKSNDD
Sequence of integrin receptor α4β1 (P05556 21-798, form in doubt, chain 2 of 2): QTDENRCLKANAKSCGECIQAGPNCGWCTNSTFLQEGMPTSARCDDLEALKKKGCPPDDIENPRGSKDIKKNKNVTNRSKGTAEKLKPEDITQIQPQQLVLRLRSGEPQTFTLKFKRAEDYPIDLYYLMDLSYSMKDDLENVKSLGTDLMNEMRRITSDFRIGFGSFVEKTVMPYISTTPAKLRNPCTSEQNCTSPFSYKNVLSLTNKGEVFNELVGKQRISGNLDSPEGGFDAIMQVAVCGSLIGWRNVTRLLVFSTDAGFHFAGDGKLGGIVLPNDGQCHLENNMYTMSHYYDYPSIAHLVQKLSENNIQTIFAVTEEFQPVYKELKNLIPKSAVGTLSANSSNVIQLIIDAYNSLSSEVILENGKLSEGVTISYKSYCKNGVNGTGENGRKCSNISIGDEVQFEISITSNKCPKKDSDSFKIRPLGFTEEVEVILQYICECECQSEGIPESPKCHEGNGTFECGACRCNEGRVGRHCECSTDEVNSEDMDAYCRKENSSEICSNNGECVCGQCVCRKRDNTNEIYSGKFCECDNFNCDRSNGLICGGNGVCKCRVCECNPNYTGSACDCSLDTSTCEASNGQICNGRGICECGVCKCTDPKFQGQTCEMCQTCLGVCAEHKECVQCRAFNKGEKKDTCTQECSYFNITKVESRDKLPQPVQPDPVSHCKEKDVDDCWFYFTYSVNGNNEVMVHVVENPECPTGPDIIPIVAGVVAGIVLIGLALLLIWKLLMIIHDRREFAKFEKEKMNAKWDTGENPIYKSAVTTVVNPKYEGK

[7] = system: Jurkat cells; assay: Jurkat cell adhesion to surfaces coated with peptide-rsa conjugates; format: cell-based, human; settings: FIGS. 13-15; Jurkat, U937 and HUT 78 cells
Description: ^51Cr-labeled Jurkat cells ([…]) were incubated on surfaces coated with varying concentrations of peptide-rsa conjugates starting at 50 ug/ml (w/v) fragment or peptide (based on peptide not peptide-conjugate weight). […] (No adhesion=no measurable adhesion above negative controls.)
Adhesion of various hematopoetic cell lines to CS-1 (open bars; FIG. 12) or LDV minimal peptide-coated surfaces (cross-hatched bars; FIG. 12) was tested as follows: Jurkat (T lymphoblastoid), A375 (melanoma), U937 (monocytic), Ramos (B lymphoblastoid), and ST-1 (EBV transformed B lymphoblastoid) cells were allowed to adhere to CS-1-rsa or LDVPST-rsa (5 ug/ml peptide) coated surfaces for 30 min at 37° C. At the end of this time the non-adherent cells were washed off and the adherent cells were solubilized in NaOH/SDS and quantitated in a gamma counter. The results are expressed as bound counts per minute.

- IC50 [2]: > 1 mM
Substance: DELPQLVTLPHPN [Peptide A13, N-terminal peptide of CS-1]

- IC50 [2]: > 1.6 mM
Substance: LDVPST [Peptide 351]
- Adhesion (cpm) +IL-1β ([3]; Table XI, no peptide 12936): 15092 cpm
- Adhesion (cpm) Basal ([3]; Table XI, no peptide 2724): 3532 cpm
- Adhesion (cpm) +IL-1β ([4]; Table XI, no peptide 314848): 326260 cpm
- Adhesion (cpm) Basal ([4]; Table XI, no peptide 161092): 166948 cpm
- Adhesion (cpm) +IL-1β ([5]; Table XI, no peptide 71408): 92792 cpm
- Adhesion (cpm) Basal ([5]; Table XI, no peptide 44860): 39700 cpm

- Adhesion (cpm), Jurkat (T) on HUVE, +IL-1β; no peptide 314848 [6]: 326000 cpm
- Adhesion (cpm), Jurkat (T) on HUVE, Basal; no peptide 161092 [6]: 167000 cpm
- Adhesion (cpm), LAD (B) on HUVE, +IL-1β; no peptide 71408 [6]: 92800 cpm
- Adhesion (cpm), LAD (B) on HUVE, Basal; no peptide 44860 [6]: 39700 cpm
- Adhesion (cpm), Ramos (B) on HUVE, +IL-1β; no peptide 12936 [6]: 15100 cpm
- Adhesion (cpm), Ramos (B) on HUVE, Basal; no peptide 2724 [6]: 3530 cpm
Substance: LDVPST peptide

- IC50 [2]: > 2.5 mM
Substance: VPST [Peptide 350]
- Adhesion (cpm) +IL-1β ([3]; Table XI, no peptide 12936): 15320 cpm
- Adhesion (cpm) +IL-1β ([3]; peptides, Table X): 4568 cpm
- Adhesion (cpm) Basal ([3]; Table XI, no peptide 2724): 4168 cpm
- Adhesion (cpm) +IL-1β ([4]; Table XI, no peptide 314848): 322208 cpm
- Adhesion (cpm) +IL-1β ([4]; peptides, Table X): 127544 cpm
- Adhesion (cpm) Basal ([4]; Table XI, no peptide 161092): 203716 cpm
- Adhesion (cpm) +IL-1β ([5]; Table XI, no peptide 71408): 98860 cpm
- Adhesion (cpm) +IL-1β ([5]; peptides, Table X): 42728 cpm
- Adhesion (cpm) Basal ([5]; Table XI, no peptide 44860): 38176 cpm

- IC50 [2]: > 2.7 mM
Substance: leu-asp-val (Leu-Asp-Val; not fully specified; printed as leu-asp-val) [LDV]

Further lines, the substance ahead of its results:

Substance: CS-1 (rabbit IgG conjugate): CS-1 peptide coupled to rabbit IgG (DELPQLVTLPHPNLHGPEILDVPST; also: coupled to rabbit IgG, site not given here)
- T lymphocyte attachment to peptide (rabbit IgG conjugate)-coated plastic surfaces [1]: recognize and attach

Substance: CS-2 (rabbit IgG conjugate): CS-2 peptide of the IIICS region coupled to rabbit IgG (PSTVQKTPFVTHPGYDTGNGIQLPGT; also: coupled to rabbit IgG, site not given here)
- T lymphocyte attachment to peptide (rabbit IgG conjugate)-coated plastic surfaces [1]: do not attach

Substance: DELPQLVTLPHPNLHGPEILDVPST [Peptide 344, synthetic CS-1 peptide of the fibronectin IIICS region]
- Adhesion (cpm) Basal ([3]; peptides, Table X): 1660 cpm
- Adhesion (cpm) Basal ([4]; peptides, Table X): 29568 cpm
- Adhesion (cpm) Basal ([5]; peptides, Table X): 17500 cpm

Substance: VPST-rsa: VPST conjugated to rabbit serum albumin (also: conjugated to rabbit serum albumin)
- Induction of stable cell adhesion [7]: relatively inactive in inducing stable cell adhesion
